Legend:
human PPAR 2 = target: T1, human PPAR 2 (Homo sapiens, UniProt P37231); experiment: PPAR activating activity, Gal4-PPAR chimera luciferase transfection assay using COS7 cells; type: cell-based; conditions: relative to Rosiglitazone
T1 construct: the amino acids 182 to 505 of human PPAR 2; expressed in transfected cells; host or cells: COS7 cells
T1 sequence (P37231 182-505): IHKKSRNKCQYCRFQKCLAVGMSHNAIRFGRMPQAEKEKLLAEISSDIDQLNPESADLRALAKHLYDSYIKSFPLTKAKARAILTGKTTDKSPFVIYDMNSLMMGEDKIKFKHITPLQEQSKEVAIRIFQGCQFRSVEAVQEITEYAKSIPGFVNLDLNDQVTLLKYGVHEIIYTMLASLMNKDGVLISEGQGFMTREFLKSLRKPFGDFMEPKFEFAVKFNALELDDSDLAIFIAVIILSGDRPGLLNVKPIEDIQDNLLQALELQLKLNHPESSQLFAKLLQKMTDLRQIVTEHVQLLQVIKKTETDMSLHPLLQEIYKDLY
Experimental: PPAR Activating Activity The agonist activity of the Compound a and the Compound b on PPAR was measured based on the transfection assay using COS7 cells (DS Pharma Biomedical Co., Ltd., Osaka, Japan), which are the cell line derived from the kidney of the African green monkey. COS7 cells were cultured under 5% CO2 concentration, and DMEM medium containing 10% fetal bovine serum, glutamic acid, and antibiotics was used as a medium. As an expression vector, a chimera in which DNA binding domain of Gal4 which is a yeast transcription factor, and ligand binding domain of human PPAR 2 are fused, i.e., a fused product between the amino acids 1 to 147 of Gal4 transcription factor and the amino acids 182 to 505 of human PPAR 2, was used. Furthermore, as a reporter vector, a firefly luciferase containing five copies of Gal4 recognition sequence in the promoter region was used. Plasmid transfection of the cells was performed according to a method which uses jetPEI (trade name, manufactured by Funakoshi Co., Ltd., Tokyo, Japan). […] After that, the luciferase activity and -galactosidase activity in the cell lysis solution were measured. […] The percentage of the luciferase activity of the Compound a or the Compound b (1 to 30 mol/L) was calculated when the luciferase activity of Rosiglitazone (3 to 10 mol/L) is 100% and the luciferase activity in the absence of the Compound a or the Compound b is 0%. […]

[1] = system: angiotensin II-induced blood pressure increase; experiment: Inhibitory activity on angiotensin II-induced blood pressure increase; type: in vivo; conditions: male SD rat, FIG. 1
Experimental: Inhibitory Activity on Angiotensin II-Induced Blood Pressure Increase
The in vivo angiotensin II antagonist activity of the Compound a and the Compound B was evaluated by following, as an index, the blood pressure increase induced by intravenous injection of angiotensin II.
A male SD rat (10 to 12-week old) was anesthetized with pentobarbital, and a cannular for measuring blood pressure was inserted into the right femoral artery while a cannular for injecting angiotensin II was inserted into the right jugular vein, the cannulars were then fixed on the back side of the neck as exposed.
One day after the surgery, the rat was subjected to the test under unanaesthetized, unstrained, and unfasted condition. The artery cannular was connected to a blood pressure transducer, and the blood pressure and heart rate were continuously recorded on a polygraph with an aid of an amplifier. Once the blood pressure and heart rate are stabilized, angiotensin II (0.1 nmol/kg) was administered via the vein cannular. The angiotensin II was repeatedly administered until a stable hypertensive response is obtained. After that, the Compound a (1 mg/kg or 3 mg/kg) or the Compound B (3 mg/kg) was orally administered, and the hypertensive response induced by angiotensin II was observed over time until 24 hours after the administration. […]

percentage of the luciferase activity (Rosiglitazone = 100%, absence of compound = 0%) (human PPAR 2): 24%
Compound: CCCCc1nc(C)n(-c2ncc(OC)cn2)c(=O)c1Cc1ccc(-c2ccccc2-c2noc(=O)[nH]2)cc1 [Compound b, 3-{4′-{[6-butyl-3-(5-methoxypyrimidin-2-yl)-2-methylpyrimidin-4(3H)-on-5-yl]methyl}biphenyl-2-yl}-1,2,4-oxadiazol-5(4H)-one]
effect of inhibiting the angiotensin II-induced blood pressure increase, compared with Compound a 3 mg/kg ([1]; oral 3 mg/kg): substantially the same degree as the administration of the Compound a with dosage of 3 mg/kg
inhibitory action on angiotensin II-induced blood pressure increase, 24 hours after the administration ([1]; oral, Compound a 1 or 3 mg/kg, Compound B 3 mg/kg, 24 hours after administration): its effect was almost completely lost 24 hours after the administration

Source: patent US20110306623A1, “NOVEL COMPOUNDS COMPRISING A 3-(5-ALKOXYPYRIMIDIN-2-YL) PYRIMIDIN-4(3H)-ONE STRUCTURE AND DRUGS THAT COMPRISE SAME” (KOWA COMPANY, LTD., priority 2009, published 2011)
